In EPA's ToxRefDB 2:

Columns and labels:
[1] = test system: rat; settings: Combined chronic toxicity/carcinogenicity, sprague dawley, Oral, Feed, dose end: 104 week, group: systemic
[2] = test system: mouse; settings: Carcinogenicity, cd1, Oral, [Not Specified], dose end: 18 month, group: systemic
[3] = test system: rabbit; settings: Prenatal developmental toxicity study, new zealand white, Oral, Gavage/Intubation, dose end: 18 GD
[4] = test system: rat; settings: Combined chronic toxicity/carcinogenicity, sprague dawley, Oral, Feed, dose end: 105 week, group: systemic
[5] = test system: rat; settings: Subchronic oral toxicity in rodents, sprague dawley, Gavage/Intubation, dose end: 12 week, group: systemic, systemic / clinical chemistry / albumin / albumin + systemic / clinical chemistry / alkaline phosphatase (alp/alk) / alkaline phosphatase (…
[6] = test system: rat; settings: Subchronic oral toxicity in rodents, wistar, Feed, dose end: 13 week, group: systemic
[7] = test system: mouse; settings: Carcinogenicity, cd1, Oral, Feed, dose end: 104 week, group: systemic
[8] = test system: dog; settings: Sub-acute repeat dose toxicity; other; Oral; Feed; dose end: 4 week; group: systemic; systemic / in life observation / body weight / body weight gain + systemic / in life observation / food consumption / food consumption
[9] = test system: rat; settings: Combined chronic toxicity/carcinogenicity, other, Oral, Feed, dose end: 104 week, group: systemic
[10] = test system: rat; settings: Multigenerational reproductive toxicity study, sprague dawley, Oral, Feed, dose end: 2 generation
[11] = test system: mouse; settings: Subchronic oral toxicity in rodents, cd1, Feed, dose end: 90 day, group: systemic
[12] = test system: rat; settings: Chronic toxicity; sprague dawley (CD); Oral; Feed; dose end: 104 week; group: systemic; systemic / in life observation / body weight / body weight + systemic / in life observation / body weight / body weight gain
[13] = test system: rat; settings: Chronic toxicity; wistar; Oral; Feed; dose end: 2 year; group: systemic; systemic / hematology / hemoglobin (hgb) / hemoglobin (hgb) + systemic / in life observation / body weight / body weight + systemic / organ …
[14] = test system: dog; settings: Chronic toxicity; beagle; Oral; Feed; dose end: 2 year; group: systemic; systemic / in life observation / body weight / body weight gain + systemic / in life observation / food consumption / food consumption + …
[15] = test system: dog; settings: Chronic toxicity, beagle, Oral, Capsule, dose end: 12 month, group: systemic
[16] = test system: dog; settings: Chronic toxicity, beagle, Oral, Feed, dose end: 12 month, group: systemic
[17] = test system: rat; settings: Subchronic oral toxicity in rodents, wistar, Feed, dose end: 3 month, group: systemic
[18] = test system: rat; settings: Combined chronic toxicity/carcinogenicity; wistar; Oral; Feed; dose end: 28 month; group: systemic; systemic / in life observation / body weight / body weight + systemic / in life observation / body weight / body weight gain
[19] = test system: rat; settings: Multigenerational reproductive toxicity study, sprague dawley, Oral, Feed, dose end: 2 generation; remark: listed apart in the source
[20] = test system: rat; settings: Prenatal developmental toxicity study, wistar, Oral, Gavage/Intubation, dose end: 16 GD
[21] = test system: rabbit; settings: Prenatal developmental toxicity study, dutch, Oral, Gavage/Intubation, dose end: 18 GD
[22] = systemic / in life observation / body weight / body weight + systemic / in life observation / body weight / body weight gain + systemic / in…
[23] = systemic / in life observation / clinical signs / fur (altered appearance) + systemic / in life observation / clinical signs / urine …
[24] = systemic / in life observation / food consumption / food consumption + systemic / in life observation / body weight / body weight
[25] = group: developmental, developmental / developmental malformation / bone / supernumerary
[26] = group: developmental, developmental / developmental malformation / bone / supernumerary + developmental / developmental malformation / heart / [other] + …
[27] = group: maternal, systemic / in life observation / body weight / body weight gain + systemic / in life observation / food consumption / food consumption
[28] = systemic / clinical chemistry / aspartate aminotransferase (ast/sgot) / aspartate aminotransferase (ast/sgot)
[29] = systemic / in life observation / mortality / mortality + systemic / pathology gross / mammary gland / cyst + systemic / pathology gross / …
[30] = systemic / hematology / anemia / anemia - hemolytic + systemic / hematology / hemoglobin (hgb) / hemoglobin (hgb) + systemic / hematology / …
[31] = systemic / clinical chemistry / cholesterol / cholesterol + systemic / clinical chemistry / gamma glutamyl transpeptides (gtp) / gamma …
[32] = systemic / clinical chemistry / thyroxine (t4) / thyroxine (t4), total + systemic / pathology microscopic / liver / cellular alteration + …
[33] = group: offspring, systemic / in life observation / body weight / offspring (pup) weight
[34] = group: parental, systemic / pathology gross / lung / foci + systemic / pathology microscopic / kidney / dilatation + systemic / pathology microscopic / …
[35] = systemic / pathology microscopic / liver / hypertrophy
[36] = systemic / pathology microscopic / liver / hypertrophy + systemic / organ weight / liver / absolute + systemic / organ weight / liver / …
[37] = systemic / clinical chemistry / gamma glutamyl transferase (ggt) / gamma glutamyl transferase (ggt)
[38] = systemic / hematology / hemoglobin (hgb) / hemoglobin (hgb) + systemic / in life observation / body weight / body weight gain + systemic / …
[39] = systemic / urinalysis / appearance and color / appearance and color
[40] = group: offspring, systemic / in life observation / clinical signs / reduced body size
[41] = group: offspring, systemic / in life observation / clinical signs / reduced body size + systemic / in life observation / body weight / offspring (pup) weight
[42] = group: parental, systemic / in life observation / body weight / body weight + systemic / in life observation / body weight / body weight gain + systemic / in…
[43] = group: parental, systemic / in life observation / body weight / body weight + systemic / in life observation / food consumption / food consumption
[44] = group: developmental, developmental / developmental malformation / bone / bent + developmental / developmental malformation / bone / incomplete ossification + …
[45] = group: maternal, reproductive / reproductive performance / resorptions / resorptions + systemic / in life observation / body weight / body weight gain + …
[46] = group: developmental, developmental / developmental malformation / bone / incomplete ossification + developmental / developmental malformation / bone / misshapen…
[47] = group: maternal, reproductive / reproductive performance / aborted / aborted + systemic / in life observation / food consumption / food consumption + …

CC1(C)C(=O)N(Cl)C(=O)N1Cl [1,3-Dichloro-5,5-dimethylhydantoin]
NOAEL [1, 22]: 300 mg/kg/day
LOAEL ([1]; systemic / in life observation / body weight / body weight + systemic / in life observation / body weight / body weight gain + systemic / …): 1000 mg/kg/day
LEL [1, 23]: 100 mg/kg/day
NEL [1, 23]: < 100 mg/kg/day
LEL ([2]; systemic / in life observation / body weight / body weight): 320 mg/kg/day
NEL ([2]; systemic / in life observation / body weight / body weight + systemic / in life observation / food consumption / food consumption): 100 mg/kg/day
LOAEL [2, 24]: > 1000 mg/kg/day
NOAEL [2, 24]: ≥ 1000 mg/kg/day
LEL [3, 25]: 500 mg/kg/day
LOAEL [3, 25]: 500 mg/kg/day
NEL [3, 26]: 100 mg/kg/day
NOAEL [3, 26]: 100 mg/kg/day
LEL [3, 27]: 1000 mg/kg/day
LOAEL [3, 27]: 1000 mg/kg/day
NEL [3, 27]: 500 mg/kg/day
NOAEL [3, 27]: 500 mg/kg/day
LEL [4, 28]: 100 mg/kg/day
NEL [4, 28]: < 100 mg/kg/day
LOAEL [4, 29]: 1000 mg/kg/day
NOAEL [4, 29]: 320 mg/kg/day

CC1=C(/C=C/C(C)=C/C=C/C(C)=C\C(=O)O)C(C)(C)CCC1 [13-cis Retinoic acid]
LEL [5]: 4 mg/kg/day
LOAEL [5]: > 40 mg/kg/day
NEL [5]: < 4 mg/kg/day
NOAEL [5]: ≥ 40 mg/kg/day

COC(=O)c1c(Cl)c(Cl)c(C(=O)OC)c(Cl)c1Cl [Chlorthal-dimethyl]
LOAEL [6, 30]: > 2500 mg/kg/day
NEL [6, 30]: 5 mg/kg/day
NOAEL [6, 30]: ≥ 2500 mg/kg/day
LEL ([6]; systemic / hematology / polychromasia / polychromasia): 17 mg/kg/day
LOAEL [7, 31]: 1140 mg/kg/day
NEL [7, 31]: 15 mg/kg/day
NOAEL [7, 31]: 510 mg/kg/day
LEL ([7]; systemic / clinical chemistry / gamma glutamyl transpeptides (gtp) / gamma glutamyl transpeptides (gtp) + systemic / clinical chemistry / …): 150 mg/kg/day
LEL [8]: 250 mg/kg/day
LOAEL [8]: > 1250 mg/kg/day
NEL [8]: 50 mg/kg/day
NOAEL [8]: ≥ 1250 mg/kg/day
LEL [9, 32]: 10 mg/kg/day
LOAEL [9, 32]: 10 mg/kg/day
NOAEL [9, 32]: 1 mg/kg/day
NEL ([9]; systemic / pathology microscopic / eye / atrophy + systemic / pathology microscopic / liver / cellular alteration + systemic / pathology …): 1 mg/kg/day
LEL [10, 33]: 233 mg/kg/day
LOAEL [10, 33]: 233 mg/kg/day
NEL [10, 33]: 45 mg/kg/day
NOAEL [10, 33]: 45 mg/kg/day
LOAEL [10, 34]: 233 mg/kg/day
NOAEL [10, 34]: 45 mg/kg/day
LEL ([10]; group: parental, systemic / pathology microscopic / lung / infiltration cellular + systemic / pathology microscopic / thymus / involution): 45 mg/kg/day
LEL [11, 35]: 1050 mg/kg/day
LOAEL [11, 35]: 1240 mg/kg/day
NEL [11, 36]: 517 mg/kg/day
NOAEL [11, 36]: 406 mg/kg/day
LEL [12]: 1000 mg/kg/day
LOAEL [12]: 1000 mg/kg/day
NEL [12]: 50 mg/kg/day
NOAEL [12]: 50 mg/kg/day
LEL [13]: 80 mg/kg/day
LOAEL [13]: > 80 mg/kg/day
NEL [13]: 20 mg/kg/day
NOAEL [13]: ≥ 80 mg/kg/day
LEL [14]: 100 mg/kg/day
LOAEL [14]: > 100 mg/kg/day
NEL [14]: 15 mg/kg/day
NOAEL [14]: ≥ 100 mg/kg/day

CCCN(CCC)c1c([N+](=O)[O-])cc(C(F)(F)F)cc1[N+](=O)[O-] [Trifluralin]
LEL [15, 37]: 0.75 mg/kg/day
NEL [15, 37]: < 0.75 mg/kg/day
NOAEL ([15]; systemic / clinical chemistry / gamma glutamyl transferase (ggt) / gamma glutamyl transferase (ggt) + systemic / in life observation / body …): 2.4 mg/kg/day
LOAEL [15, 22]: 40 mg/kg/day
NEL ([16]; systemic / hematology / methemoglobin / methemoglobin + systemic / clinical chemistry / cholesterol / cholesterol + systemic / clinical …): 0.8 mg/kg/day
LOAEL ([16]; systemic / organ weight / liver / absolute): 3.8 mg/kg/day
NOAEL ([16]; systemic / organ weight / liver / absolute + systemic / clinical chemistry / cholesterol / cholesterol + systemic / clinical chemistry / …): 0.8 mg/kg/day
LEL ([16]; systemic / organ weight / liver / absolute + systemic / hematology / methemoglobin / methemoglobin): 3.8 mg/kg/day
LOAEL [17, 38]: 392 mg/kg/day
NOAEL [17, 38]: 154 mg/kg/day
LEL [17, 39]: 59 mg/kg/day
NEL [17, 39]: < 59 mg/kg/day
LEL [18]: 169 mg/kg/day
LOAEL [18]: 169 mg/kg/day
NEL [18]: 40 mg/kg/day
NOAEL [18]: 40 mg/kg/day
LEL [19, 40]: 47 mg/kg/day
LOAEL [19, 40]: 47 mg/kg/day
NEL [19, 41]: 15 mg/kg/day
NOAEL [19, 41]: 15 mg/kg/day
NEL [19, 42]: 15 mg/kg/day
NOAEL [19, 42]: 15 mg/kg/day
LEL [19, 43]: 47 mg/kg/day
LOAEL [19, 43]: 47 mg/kg/day
LEL [20, 44]: 500 mg/kg/day
LOAEL [20, 44]: 500 mg/kg/day
NEL [20, 44]: 100 mg/kg/day
NOAEL [20, 44]: 100 mg/kg/day
LEL [20, 45]: 500 mg/kg/day
LOAEL [20, 45]: 500 mg/kg/day
NEL [20, 45]: 100 mg/kg/day
NOAEL [20, 45]: 100 mg/kg/day
LEL [21, 46]: 500 mg/kg/day
LOAEL [21, 46]: 500 mg/kg/day
NEL [21, 46]: 225 mg/kg/day
NOAEL [21, 46]: 225 mg/kg/day
LEL [21, 47]: 225 mg/kg/day
LOAEL [21, 47]: 225 mg/kg/day
NEL [21, 47]: 100 mg/kg/day
NOAEL [21, 47]: 100 mg/kg/day
